Values of other authors as cited in patent US20130137781A1, “PHARMACEUTICAL PREPARATION FOR CONTROLLING WATER-SOLUBLE DRUG RELEASE” (priority 2010, published 2013).

Assays:
[1] = common logarithm of n-octanol/water partition coefficient

| Log P [1] | thermal stability in solution state | SMILES |
| --- | --- | --- |
| −1.5 | – | N[C@@H](Cc1ccccc1)C(=O)O [L-phenylalanine] |
| −3.2 | thermally unstable in solution state | N[C@H](C(=O)O)[C@H](O)c1ccc(O)c(O)c1 [droxidopa] |
| 0.2 | – | NS(=O)(=O)Cc1noc2ccccc12 [zonisamide] |
